{"source": "BindingDB's records for doi:10.1111/j.1747-0285.2009.00924.x", "about": "(Nankai University, 2010)"}
{"target": "T1, Ketol-acid reductoisomerase (NADP(+)) (Escherichia coli (strain K12), UniProt P05793)", "T1 sequence (P05793 whole entry)": "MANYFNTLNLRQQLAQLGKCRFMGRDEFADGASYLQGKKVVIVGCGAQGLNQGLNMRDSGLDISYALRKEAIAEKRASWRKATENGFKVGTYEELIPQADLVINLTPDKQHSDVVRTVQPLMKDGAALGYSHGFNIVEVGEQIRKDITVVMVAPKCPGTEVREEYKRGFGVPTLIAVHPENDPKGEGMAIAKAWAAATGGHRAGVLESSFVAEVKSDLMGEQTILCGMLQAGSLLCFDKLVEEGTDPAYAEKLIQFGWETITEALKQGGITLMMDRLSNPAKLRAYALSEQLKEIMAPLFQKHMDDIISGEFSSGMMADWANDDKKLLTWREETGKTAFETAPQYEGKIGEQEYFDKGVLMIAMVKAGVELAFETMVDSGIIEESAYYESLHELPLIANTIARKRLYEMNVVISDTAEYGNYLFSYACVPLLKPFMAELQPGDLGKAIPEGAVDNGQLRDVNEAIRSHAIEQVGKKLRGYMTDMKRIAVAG", "test": "Enzyme Inhibition Assay", "settings": "pH 8; 30 °C", "procedure": "Inhibition of E. coli KARI (ketol-acid reductoisomerase) is time dependent, and activity was measured by the decrease in A340 at 30 C in solutions containing 0.2 mM […], 1 mM MgCl2, substrate 2-acetolactate and inhibitor in 0.1 M phosphate buffer at pH 8.0.", "units": {"Ki": "µM"}}
{"smiles": "O=C(O)C1(C(=O)O)CC1", "note": "[Cyclopropane, 3]", "Ki": 76.6}
{"smiles": "N#CC1(C(=O)O)CC1", "note": "[Cyclopropane, 4]", "Ki": 95.3}
{"smiles": "NC(=O)C1(C(=O)O)CC1", "note": "[Cyclopropane, 5]", "Ki": 31.2}
{"smiles": "CC(C)N(O)C(=O)C(=O)O", "note": "[N-hydroxy-N-isopropyloxamate, IpOHA]", "Ki": 2.75}
